Assay [1] has as its target T1, mMC1R (Mus musculus, UniProt Q01727). Briefly: CRE/β-galactosidase reporter gene bioassay, agonist activity at mMC1R. It is filed as cell-based.
Assay [2] has as its target T2, mMC4R (Mus musculus, UniProt P56450). Briefly: CRE/β-galactosidase reporter gene bioassay, agonist activity at mMC4R. Type of assay: cell-based. To be noted: ligand at 100 μM, compared to maximal response generated by α-MSH. (In a reporter assay the amount or activity of a reporter protein is the signal.)
Assay [3] concerns the target T2, mMC4R. The experiment in a line: Antagonist Schild analysis against agonist MTII at mMC4R. It is filed as cell-based.
For assay [4], the target named is T3, mMC5R (Mus musculus, UniProt P41149). The experiment in a line: CRE/β-galactosidase reporter gene bioassay, agonist activity at mMC5R. Type of assay: cell-based.
T3 sequence (P41149 whole entry): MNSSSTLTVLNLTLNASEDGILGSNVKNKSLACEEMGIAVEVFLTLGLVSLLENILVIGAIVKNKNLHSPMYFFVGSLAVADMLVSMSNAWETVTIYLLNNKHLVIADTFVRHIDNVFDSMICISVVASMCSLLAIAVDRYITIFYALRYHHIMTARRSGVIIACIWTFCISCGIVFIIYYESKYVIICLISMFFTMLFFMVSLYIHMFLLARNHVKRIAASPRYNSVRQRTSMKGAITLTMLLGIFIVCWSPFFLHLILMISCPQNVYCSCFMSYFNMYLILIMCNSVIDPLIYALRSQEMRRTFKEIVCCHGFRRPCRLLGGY
Assay [5] addresses T4, mMC3R (Mus musculus, UniProt P33033). The experiment in a line: Antagonist Schild analysis against agonist MTII at mMC3R. Type of assay: cell-based.
Another assay concerns male and female mice. To be noted: central administration, ref [37]; cited from earlier work.
Assay [6] has as its target T1, mMC1R. Conditions: read-out: mMC1R EC50, reference peptide from the literature, cited from earlier work.
In assay [7] the target is T4, mMC3R. Conditions: cited from earlier work; for EC50: read-out: mMC3R EC50, reference peptide from the literature.
Assay [8] concerns the target T3, mMC5R. To be noted: read-out: mMC5R EC50, reference peptide from the literature, cited from earlier work.
For assay [9], the target named is T2, mMC4R. Conditions: read-out: mMC4R EC50, reference peptide from the literature, cited from earlier work.
The mark [10] stands for this setting: fold difference in EC50 vs peptide 1, negative prefix = more potent than 1.
The mark [11] stands for this setting: Ant = antagonist, SA = some stimulatory activity at 100 µM.

Data on 14 compounds can be found in publication PMC6261661 (ACS chemical neuroscience, 2018).

A word on the EC50: it is the concentration that produces a half-maximal response. Usually Kb stands for the equilibrium dissociation constant of an antagonist, usually derived from a functional assay.

Values joined by “and” are separate entries in the source; they are usually repeats but may differ in a detail not shown here. Identical values can stand only once. Like-named read-outs stand apart in the source and are kept apart here. Square brackets hold non-standard residues; d marks the D form. Peptide text beside a SMILES is read from it. Bip = N[C@@H](Cc1ccc(-c2ccccc2)cc1)C(=O)O; dBip = N[C@H](Cc1ccc(-c2ccccc2)cc1)C(=O)O; dPhe(4-I) = N[C@H](Cc1ccc(I)cc1)C(=O)O; 1Nal = N[C@@H](Cc1cccc2ccccc12)C(=O)O; 2Nal = N[C@@H](Cc1ccc2ccccc2c1)C(=O)O; d2Nal = N[C@H](Cc1ccc2ccccc2c1)C(=O)O; 3Pal = N[C@@H](Cc1cccnc1)C(=O)O; 4Pal = N[C@@H](Cc1ccncc1)C(=O)O; Tic = O=C(O)[C@@H]1Cc2ccccc2CN1

T1 sequence (Q01727 whole entry): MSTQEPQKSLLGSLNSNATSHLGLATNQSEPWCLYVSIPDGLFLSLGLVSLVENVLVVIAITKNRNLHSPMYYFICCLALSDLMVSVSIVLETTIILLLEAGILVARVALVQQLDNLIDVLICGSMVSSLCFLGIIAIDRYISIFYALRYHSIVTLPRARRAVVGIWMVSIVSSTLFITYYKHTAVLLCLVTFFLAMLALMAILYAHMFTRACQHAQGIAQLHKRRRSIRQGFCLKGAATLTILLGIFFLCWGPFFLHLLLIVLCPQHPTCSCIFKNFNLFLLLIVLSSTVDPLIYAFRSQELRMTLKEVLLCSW
T4 sequence (P33033 whole entry): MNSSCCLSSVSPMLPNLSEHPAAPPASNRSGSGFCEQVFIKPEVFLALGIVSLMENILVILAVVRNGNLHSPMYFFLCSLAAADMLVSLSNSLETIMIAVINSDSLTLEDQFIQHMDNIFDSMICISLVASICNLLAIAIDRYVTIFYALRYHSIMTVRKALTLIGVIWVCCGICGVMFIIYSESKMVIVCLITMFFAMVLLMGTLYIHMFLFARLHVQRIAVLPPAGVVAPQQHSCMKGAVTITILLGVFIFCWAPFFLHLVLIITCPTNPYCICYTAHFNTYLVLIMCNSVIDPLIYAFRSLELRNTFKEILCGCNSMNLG
T2 sequence (P56450 whole entry): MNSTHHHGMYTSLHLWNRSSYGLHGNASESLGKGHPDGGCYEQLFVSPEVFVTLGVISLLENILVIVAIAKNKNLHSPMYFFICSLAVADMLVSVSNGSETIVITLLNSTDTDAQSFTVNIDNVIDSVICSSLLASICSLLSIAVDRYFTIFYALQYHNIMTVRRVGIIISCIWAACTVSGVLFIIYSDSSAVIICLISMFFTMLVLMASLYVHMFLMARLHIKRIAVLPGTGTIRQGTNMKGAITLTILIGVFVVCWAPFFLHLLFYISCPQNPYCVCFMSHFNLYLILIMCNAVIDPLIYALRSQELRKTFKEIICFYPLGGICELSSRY

`CC(=O)N[C@@H](Cc1c[nH]c2ccccc12)C(=O)N[C@H](Cc1ccc(I)cc1)C(=O)N[C@@H](CCCNC(=N)N)C(=O)N[C@@H](Cc1c[nH]c2ccccc12)C(N)=O` [Peptide 13, Ac-Trp-(pI)DPhe-Arg-Trp-NH2] (Ac-W[dPhe(4-I)]RW-NH2): the “mMC1R Fold Diff” value at mMC1R [1] (setting [10]) was 30. Moreover, the EC50 at mMC1R [1] (mMC1R EC50, agonist, HEK-293 cells stably expressing receptor, ±SEM) came out at 4200 ± 1200 nM; at mMC5R [4] it was 10000 ± 3000 nM. Further, the “mMC4R relative percentage of stimulation at 100 μM” value on mMC4R [2] is 40%. The Kb on mMC4R [3] is 5.01 nM; at mMC3R [5], 63.1 nM. Moreover, the “mMC4R pharmacology class printed in Fold Diff. column (Ant, SA)” value on mMC4R [3] (setting [11]) is on record as “SA Ant”. Besides, the “mMC5R Fold Diff.” value at mMC5R [4] (setting [10]) worked out at 1905. In addition, at mMC5R [4] (less potent than 1), the “mMC5R fold less potent than peptide 1” value was 1900 fold. Besides, the “mMC3R pharmacology class printed in Fold Diff column (Ant, SA)” value on mMC3R [5] (setting [11]) was “Ant”. Also, the “effect on energy homeostasis in vivo” value with male and female mice was “different effects on energy homeostasis in male mice compared to female mice”.
For the compound “Ac-Trp-DPhe-Arg-Trp-NH2 (Ac-W[dF]RW-NH2; SMILES CC(=O)N[C@@H](Cc1c[nH]c2ccccc12)C(=O)N[C@H](Cc1ccccc1)C(=O)N[C@@H](CCCNC(=N)N)C(=O)N[C@@H](Cc1c[nH]c2ccccc12)C(N)=O) [Peptide 49]”, the EC50 in the assay with mMC1R [6] (ref [33]) was 5400 ± 1800 nM; in the assay with mMC3R [7] (ref [33]) it was 10000 ± 2000 nM; in the assay with mMC5R [8] (ref [33]), 510 ± 100 nM; in the assay with mMC4R [9] (ref [33]) it was 530 ± 150 nM.
Turning to Ac-[4Pal][dF]RW-NH2 [Peptide 51], the EC50 at mMC1R [6] (ref [33]) was 180 ± 80 nM; at mMC3R [7] (ref [33]) it was 2300 ± 800 nM; at mMC5R [8] (ref [33]), 93 ± 22 nM; at mMC4R [9] (ref [33]), 130 ± 30 nM.
Take Ac-H[dF]R[dBip]-NH2 [Peptide 43]: the EC50 is 310 ± 70 nM on mMC1R [6] (ref [31]), 16000 ± 5000 nM at mMC3R [7] (ref [31]), 150 ± 10 nM on mMC5R [8] (ref [31]) and 1500 ± 400 nM at mMC4R [9] (ref [31]).
On to “Ac-Phe-DPhe-Arg-Trp-NH2 (Ac-F[dF]RW-NH2; SMILES CC(=O)N[C@@H](Cc1ccccc1)C(=O)N[C@H](Cc1ccccc1)C(=O)N[C@@H](CCCNC(=N)N)C(=O)N[C@@H](Cc1c[nH]c2ccccc12)C(N)=O) [Peptide 48]”, for which the EC50 was 500 ± 100 nM with mMC1R [6] (ref [33]), 12000 ± 2000 nM in the assay with mMC3R [7] (ref [33]), 140 ± 5 nM with mMC5R [8] (ref [33]) and 71 ± 14 nM with mMC4R [9] (ref [33]).
With `CC(=O)N[C@@H](Cc1c[nH]cn1)C(=O)N[C@H](Cc1ccccc1)C(=O)N[C@@H](CCCNC(=N)N)C(=O)N[C@@H](Cc1ccc2ccccc2c1)C(N)=O` [Peptide 39, Ac-His-DPhe-Arg-Nal(2’)-NH2] (Ac-H[dF]R[2Nal]-NH2), the EC50 is 17.9 ± 6 nM at mMC1R [6] (ref [31]); 740 ± 160 nM on mMC3R [7] (ref [31]); 4.9 ± 1.5 nM at mMC5R [8] (ref [31]); 16 nM and 15.8 nM on mMC4R [9] (ref [31]). Moreover, the “selectivity between the mMC1R and the mMC5R” value at mMC5R [4] (monosubstituted reference peptides, from literature EC50 values of Table 3) was at most 5 fold.
On to Ac-H[dF]R[1Nal]-NH2 [Peptide 38], for which the EC50 on mMC1R [6] (ref [31]) was 730 ± 320 nM; at mMC3R [7] (ref [31]) it was 3500 ± 1300 nM; at mMC5R [8] (ref [31]), 33 ± 4 nM; on mMC4R [9] (ref [31]), 260 ± 30 nM.
On to Ac-[3Pal][dF]RW-NH2 [Peptide 50], for which the EC50 on mMC1R [6] (ref [33]) was 1200 ± 200 nM; on mMC5R [8] (ref [33]) it was 400 ± 100 nM; at mMC4R [9] (ref [33]), 890 ± 100 nM. The “mMC3R pharmacology in words” value at mMC3R [7] (ref [33]) is listed as “only slight agonist activity”.
For the compound “Ac-His-DNal(1’)-Arg-Trp-NH2 [Peptide 46]”, the EC50 at mMC1R [6] (ref [32]) is 360 ± 60 nM; at mMC3R [7] (ref [32]), 4100 ± 100 nM; on mMC5R [8] (ref [32]), 51 ± 4 nM; on mMC4R [9] (ref [32]) it was 300 ± 70 nM.
With Ac-H[dF]R[d2Nal]-NH2 [Peptide 40], the EC50 on mMC1R [6] (ref [31]) was 130 ± 30 nM; on mMC3R [7] (ref [31]), 1600 ± 600 nM; on mMC5R [8] (ref [31]), 12.1 ± 3.3 nM; at mMC4R [9] (ref [31]), 46.2 ± 7.9 nM.
Take Ac-H[dF]R[Tic]-NH2 [Peptide 41]: the EC50 is 43 ± 13 nM on mMC1R [6] (ref [31]), 23000 ± 2000 nM on mMC3R [7] (ref [31]), 700 ± 100 nM on mMC5R [8] (ref [31]) and 8500 ± 900 nM on mMC4R [9] (ref [31]).
As for Ac-His-DBip-Arg-Trp-NH2 [Peptide 47], the EC50 is 28 ± 11 nM on mMC1R [6] (ref [32]), 2100 ± 700 nM at mMC3R [7] (ref [32]), 11.6 ± 3.9 nM on mMC5R [8] (ref [32]) and 68 ± 16 nM at mMC4R [9] (ref [32]).
Consider Ac-H[dF]R[Bip]-NH2 [Peptide 42], for which the EC50 is 52 ± 10 nM at mMC1R [6] (ref [31]), 13000 ± 800 nM on mMC3R [7] (ref [31]), 100 ± 20 nM on mMC5R [8] (ref [31]) and 2700 ± 500 nM on mMC4R [9] (ref [31]).
For “Ac-His-DPhe-Arg-Phe-NH2 (Ac-H[dF]RF-NH2; SMILES CC(=O)N[C@@H](Cc1c[nH]cn1)C(=O)N[C@H](Cc1ccccc1)C(=O)N[C@@H](CCCNC(=N)N)C(=O)N[C@@H](Cc1ccccc1)C(N)=O) [Peptide 37]”, the EC50 in the assay with mMC1R [6] (ref [31]) was 530 ± 240 nM; with mMC3R [7] (ref [31]), 27000 ± 7000 nM; in the assay with mMC5R [8] (ref [31]), 890 ± 110 nM; with mMC4R [9] (ref [31]), 7800 ± 2500 nM.
